System: 439559-082-T-J2-PDC complex spheroid growth
Test: Anticancer human tumor 439559-082-T-J2-PDC patient-derived colon adenocarcinoma cell line growth inhibition [Asc]
Details: for IC50: curve of first compound; for viability, T/C: stronger effect = lower value
Procedure, shortened: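 Tumor cells were grown as complex spheroids with human endothelial cells (HUVEC) and human mesenchymal stem cells as stroma. Agents were tested alone and in combination, in half-log steps down from the clinical Cmax, or from 10 microM where Cmax was unknown.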
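Also: spheroids exposed to agents for 7 days starting day 3 after seeding.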
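For viability, T/C in this document: percent of DMSO vehicle control viability with 100% = vehicle.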

Cc1nc(N2CCC3(CC2)COC(C)C3N)c(CO)nc1Sc1ccnc(N)c1Cl (configuration not stated) + CCN1C(C(=O)NC23CCC(C(=O)O)(CC2)CC3)C(c2cccc(Cl)c2F)C2(C(=O)Nc3cc(Cl)ccc32)C12CCCCC2
IC50 (second compound 0.03 µM): > 3 µM | IC50 (second compound 0.0949 µM): > 3 µM | IC50 (second compound 0.3 µM): > 3 µM | IC50 (second compound 0.949 µM): > 3 µM | IC50 (second compound 3 µM): > 3 µM | viability, T/C (second compound 0.03 µM, first compound 0.00949 µM): 109% | viability, T/C (second compound 0.03 µM, first compound 0.03 µM): 110% | viability, T/C (second compound 0.03 µM, first compound 0.0949 µM): 106% | viability, T/C (second compound 0.03 µM, first compound 0.3 µM): 91.6% | viability, T/C (second compound 0.03 µM, first compound 0.949 µM): 91.7% | viability, T/C (second compound 0.03 µM, first compound 3 µM): 80.3% | viability, T/C (second compound 0.0949 µM, first compound 0.00949 µM): 107% | viability, T/C (second compound 0.0949 µM, first compound 0.03 µM): 109% | viability, T/C (second compound 0.0949 µM, first compound 0.0949 µM): 114% | viability, T/C (second compound 0.0949 µM, first compound 0.3 µM): 93.7% | viability, T/C (second compound 0.0949 µM, first compound 0.949 µM): 86.9% | viability, T/C (second compound 0.0949 µM, first compound 3 µM): 86.1% | viability, T/C (second compound 0.3 µM, first compound 0.00949 µM): 106% | viability, T/C (second compound 0.3 µM, first compound 0.03 µM): 111% | viability, T/C (second compound 0.3 µM, first compound 0.0949 µM): 105% | viability, T/C (second compound 0.3 µM, first compound 0.3 µM): 87.8% | viability, T/C (second compound 0.3 µM, first compound 0.949 µM): 91.2% | viability, T/C (second compound 0.3 µM, first compound 3 µM): 81.2% | viability, T/C (second compound 0.949 µM, first compound 0.00949 µM): 103% | viability, T/C (second compound 0.949 µM, first compound 0.03 µM): 113% | viability, T/C (second compound 0.949 µM, first compound 0.0949 µM): 115% | viability, T/C (second compound 0.949 µM, first compound 0.3 µM): 93.5% | viability, T/C (second compound 0.949 µM, first compound 0.949 µM): 93.2% | viability, T/C (second compound 0.949 µM, first compound 3 µM): 82.2% | viability, T/C (second compound 3 µM, first compound 0.00949 µM): 89.5% | viability, T/C (second compound 3 µM, first compound 0.03 µM): 96% | viability, T/C (second compound 3 µM, first compound 0.0949 µM): 97.4% | viability, T/C (second compound 3 µM, first compound 0.3 µM): 87.8% | viability, T/C (second compound 3 µM, first compound 0.949 µM): 77.9% | viability, T/C (second compound 3 µM, first compound 3 µM): 82.7%

O=C(c1cc(Cc2n[nH]c(=O)c3ccccc23)ccc1F)N1CCN(C(=O)C2CC2)CC1 + CNC(C)C(=O)NC1CN(S(=O)(=O)c2cccc(S(=O)(=O)N3CCC4CCC(C(=O)NC(c5ccccc5)c5ccccc5)N4C(=O)C(NC(=O)C(C)NC)C3)c2)CCC2CCC(C(=O)NC(c3ccccc3)c3ccccc3)N2C1=O
IC50 (second compound 0.00316 µM): 0.333 µM | IC50 (second compound 0.01 µM): > 10 µM | IC50 (second compound 0.0316 µM): > 10 µM | IC50 (second compound 0.1 µM): > 10 µM | IC50 (second compound 0.316 µM): > 10 µM | IC50 (second compound 1 µM): > 10 µM | viability, T/C (second compound 0.00316 µM, first compound 0.0316 µM): 54.7% | viability, T/C (second compound 0.00316 µM, first compound 0.1 µM): 47.2% | viability, T/C (second compound 0.00316 µM, first compound 0.316 µM): 49.1% | viability, T/C (second compound 0.00316 µM, first compound 1 µM): 49.9% | viability, T/C (second compound 0.00316 µM, first compound 3.16 µM): 40.7% | viability, T/C (second compound 0.00316 µM, first compound 10 µM): 28.4% | viability, T/C (second compound 0.01 µM, first compound 0.0316 µM): 94.2% | viability, T/C (second compound 0.01 µM, first compound 0.1 µM): 86.3% | viability, T/C (second compound 0.01 µM, first compound 0.316 µM): 93.2% | viability, T/C (second compound 0.01 µM, first compound 1 µM): 96% | viability, T/C (second compound 0.01 µM, first compound 3.16 µM): 113% | viability, T/C (second compound 0.01 µM, first compound 10 µM): 104% | viability, T/C (second compound 0.0316 µM, first compound 0.0316 µM): 103% | viability, T/C (second compound 0.0316 µM, first compound 0.1 µM): 96.2% | viability, T/C (second compound 0.0316 µM, first compound 0.316 µM): 108% | viability, T/C (second compound 0.0316 µM, first compound 1 µM): 99.6% | viability, T/C (second compound 0.0316 µM, first compound 3.16 µM): 101% | viability, T/C (second compound 0.0316 µM, first compound 10 µM): 89.8% | viability, T/C (second compound 0.1 µM, first compound 0.0316 µM): 99.8% | viability, T/C (second compound 0.1 µM, first compound 0.1 µM): 101% | viability, T/C (second compound 0.1 µM, first compound 0.316 µM): 99.2% | viability, T/C (second compound 0.1 µM, first compound 1 µM): 96.5% | viability, T/C (second compound 0.1 µM, first compound 3.16 µM): 99.2% | viability, T/C (second compound 0.1 µM, first compound 10 µM): 102% | viability, T/C (second compound 0.316 µM, first compound 0.0316 µM): 105% | viability, T/C (second compound 0.316 µM, first compound 0.1 µM): 103% | viability, T/C (second compound 0.316 µM, first compound 0.316 µM): 102% | viability, T/C (second compound 0.316 µM, first compound 1 µM): 94.8% | viability, T/C (second compound 0.316 µM, first compound 3.16 µM): 99% | viability, T/C (second compound 0.316 µM, first compound 10 µM): 91.1% | viability, T/C (second compound 1 µM, first compound 0.0316 µM): 81.9% | viability, T/C (second compound 1 µM, first compound 0.1 µM): 78.3% | viability, T/C (second compound 1 µM, first compound 0.316 µM): 93.5% | viability, T/C (second compound 1 µM, first compound 1 µM): 85.1% | viability, T/C (second compound 1 µM, first compound 3.16 µM): 95.7% | viability, T/C (second compound 1 µM, first compound 10 µM): 65.4%
